Tests used:
N2a cells = experiment: Glutamate-induced excitotoxicity in N2a cells (MTT); assay type: cell-based; details: 15 mM glutamate 24 h
Description: Figure 1 VCE-003.2 synthesis and characterization. (a) Schematic representation of VCE-003.2 synthesis. […] The indicated concentrations were tested and results were plotted to obtain the polynomial trend on a logarithmic range. IC50 values are indicated within the graph. […]. HEK293 cells were co-transfected with GAL4-PPARγ and GAL4-luc and incubated with the indicated compound concentrations for 6 hours prior to luciferase activity determination. Results are expressed as the fold induction ± S.D. relative to untreated control. (d) N2a cells were incubated with VCE-003 and VCE-003.2 as indicated during 24 hours and cell viability was determined by the MTT assay. Results are expressed as percentage of cell viability against the negative control (100%). (e) N2a cells were pre-treated with the compounds for 30 min and incubated during 24 h with 15 mM glutamate and cell viability determined by MTT. Results are expressed as percentage of cell viability against the negative control (100%). All experiments are shown as mean ± S.D. from at least three independent experiments. Statistics: *^,#,†p < 0.05, **^,##,††p < 0.01 and ***^,###p < 0.001. […] | Briefly, N2a cells were seeded at a density of 1 × 10^3 cells/well in 96-well plates, treated with increasing concentrations of VCE-003 or VCE-003.2 for 24 hours and cell viability was measured by the MTT method. […]. […]

[1] = tested on: ERK, Akt and mTORC1 signaling pathways; experiment: ERK, Akt and mTORC1 signalling in HiB5 cells (western blot); assay type: cell-based
Description: Figure 3 Prosurvival effect of VCE-003.2 in hippocampal neural progenitor HiB5 cells. (a,b) HiB5 cells in proliferative and differentiation conditions respectively were incubated with increasing concentrations of VCE-003.2 and cell viability was assessed using the MTT test after 48 h. (c) Cell viability and ERK1/2 phosphorylation status (activation) was determined in VCE-003.2-treated cells in the absence or presence of GW9662 (5 μM). (d) VCE-003.2 time-dependent regulation of the ERK, Akt and mTORC1 signaling pathways were determined by incubation with anti-phospho-ERK, phospho-Akt and phospho-S6 antibodies. Loading control was performed with α-tubulin antibody. Representative western blots and densitometry quantification of three independent experiments are shown. Values are expressed as means ± S.D. *p < 0.05; **p < 0.01 vs. Vehicle; ^#p < 0.05 vs. VCE-003.2.
Cleared cell extracts were subjected to SDS-PAGE, transferred to polyvinylidene difluoride membranes, and incubated with the correspondent primary antibodies against phospho-ERK1/2 (Thr202/Tyr204; Cell Signaling Technology, Danvers, MA, USA), phospho-S6 ribosomal protein (Ser235/236) (Cell Signaling Technology), phospho-Akt (Ser473) (Cell Signaling Technology) and α-tubulin (Sigma-Aldrich) overnight at 4 °C. After washing membranes, horseradish peroxidase-conjugated secondary antibody was added and detected by chemiluminescence system. Loading controls were performed with an anti-α-tubulin antibody. Densitometric quantification of the luminograms was performed using a GS-700 Imaging densitometer (Bio-Rad, Hercules, CA) and Image J software.

STHdh^Q111/Q111 = experiment: Serum deprivation survival of STHdh Q111/Q111 striatal neuroblasts (MTT); assay type: cell-based, mouse; details: STHdh Q111/Q111, 72 h
Description: Figure 4 In vitro neuroprotective action of VCE-003.2. (a) HiB5 cells were treated with quinolinic acid (QA; 2,5 mM) in the presence or the absence of VCE-003.2 (50 and 250 nM) and cell viability was determined after 24 h by the MTT assay. (b) QA-induced apoptosis measured by cleaved caspase 3 immunostaining (upper panel) of differentiating HiB5 cells was quantified in the presence or absence of VCE-003.2 (250 nM). Cell counts were referred to total cell nuclei counterstained with DAPI and c-caspase3^+ cell quantification is shown in the lower panel. […]. (d) Aggregation of mut-Htt was assessed by fluorescence microscopy in immortalized striatal STHdh transfected cells with a CFP-tagged expression vector of mutant huntingtin (mut-Htt) and counterstained with fluorescent phalloidin (upper panel). […]. Results are representative of three independent experiments. Values are expressed as means ± S. D. *p < 0.05 and ***p < 0.001 vs. Vehicle; ^#p < 0.05 ^##p < 0.01 vs. QA. […]
The HiB5 hippocampal progenitor cell line (kindly provided by Prof. Z. Kokaia, Lund Stem Cell Center, Sweden) was grown as described[46] in DMEM supplemented with 2 mM glutamine, 1% penicillin/streptomycin and 10% (v/v) fetal calf serum (FCS; Lonza, Switzerland). […] Cell viability was determined after 24 h using the 3-[4,5-dimethylthiazol-2-yl]-2,5-diphenyltetrazolium bromide (MTT) tesresults int. […]

## CCCCCC1=C(NCC)C(=O)C(C/C=C(\C)CCC=C(C)C)=C(O)C1=O [VCE-003.2]
N2a cells
  prevention of glutamate-induced excitotoxicity: able to prevent excitotoxicity induced by glutamate
[1]
  ERK phosphorylation: induction of extracellular signal-regulated kinase (ERK) phosphorylation
[1]; + GW9662 5 μM
  ERK phosphorylation in presence of GW9662: abolished in the presence of GW9662
[1]; phospho-Akt
  activation of Akt, time course: activated at a higher extent and shortly after VCE-003.2 incubation and lasted until 60 min after incubation
[1]; phospho-ERK and phospho-S6
  activation of ERK and mTORC1 signaling, time course: transient activation of ERK and mTORC1 signaling pathways between 15 and 30 min after stimulation
STHdh^Q111/Q111
  neuronal viability after serum deprivation: improved
